Test system: HAP-1 cells
Experiment: Fluorescence microscopy of mitochondrial membrane potential (JC-1)
Type: cell-based, human
Details: positive control, 2.5 μg/L, 1 h
Text: To determine if 4 influences the mitochondrial membrane potential (MMP), the fluorescent dye JC‐1 was used together with fluorescence microscopy.
Fluorescence microscopy of mitochondrial membrane potential: To detect possible effects of 5 on the mitochondrial membrane potential (MMP) of HAP‐1 cells the fluorescent dye JC‐1 was used.39 JC‐1 accumulates into living cells and is present in monomers in the cytosol. It can also cross the membrane of active mitochondria, were aggregates form. When excited at λ=488 nm, JC‐1 monomers give a green fluorescence while JC‐1 aggregates show red fluorescence. […] Briefly, 10^5 cells in 500 μL medium were seeded out into a chamber of a four‐well chamber‐slide and allowed to attach for 24 h. After incubation with 4 at various concentrations, cells were exposed to the JC‐1 solution for 15 min according to the manufacturer's protocol (BD Bioscience, USA). Cells on the slides were then mounted and examined with a Leica DMi8 fluorescence microscope (Leica, Germany), at λ ex/em=488/512–542 nm for JC‐1 monomers and λ ex/em=488/565–605 nm for agglomerates.

SMILES: N#CC(C#N)=NNc1ccc(OC(F)(F)F)cc1 [FCCP, carbonyl cyanide‐p‐trifluoromethoxyphenylhydrazone]
- mitochondrial membrane potential (MMP): complete loss of MMP

Source: paper PMC7496275, “Pentathiepins: A Novel Class of Glutathione Peroxidase 1 Inhibitors that Induce Oxidative Stress, Loss of Mitochondrial Membrane Potential and Apoptosis in Human Cancer Cells” (Chemmedchem, 2020)
